Experimental data reported in patent US11109593B2, “Isoxazolin-5-one derivative and herbicide containing same as active ingredient” (HOKKO CHEMICAL INDUSTRY CO., LTD., priority 2017, dated 2021).

Test system: Echinochloa crus-galli
Assay: Test Example 1: herbicidal effect test by treatment of rice paddy soil (immediately after seeding)
Assay type: in vivo
Settings: 120 g/10a active ingredient, dry weight vs untreated area, 14 days after treatment
Outline: (§1)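 Flooded paddy pot test in a glass greenhouse: emulsion diluted in water, dropped at 120 g a.i. per 10 ares just after sowing, water depth kept about 3 cm. Dry-weight reduction relative to untreated plants is scored at 14 days.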

Row | SMILES | Herbicidal rate (%) Echinochloa crus-galli [%]
1 | COCC(C)n1oc(=O)c(Cc2ccccc2N(S(C)(=O)=O)S(=O)(=O)C(F)(F)F)c1C (stereo not drawn) [Compound 1-899] | 90
2 | CSCCn1oc(=O)c(Cc2ccccc2N(C(=O)C(C)C)S(=O)(=O)C(F)(F)F)c1C [Compound 1-336] | 90
3 | Cc1c(Cc2ccccc2N(C(=O)CC(C)C)S(=O)(=O)C(F)(F)F)c(=O)on1C(C)c1ccccc1 (stereo not drawn) [Compound 1-359] | 90

Test system: Scirpus juncoides
Assay: as above
Assay type: in vivo
Settings: 120 g/10a active ingredient, dry weight vs untreated area, 14 days after treatment
Outline: as §1

Row | SMILES | Herbicidal rate (%) Scirpus juncoides [%]
4 | COCC(C)n1oc(=O)c(Cc2ccccc2N(S(C)(=O)=O)S(=O)(=O)C(F)(F)F)c1C (stereo not drawn) [Compound 1-899] | 90
5 | CSCCn1oc(=O)c(Cc2ccccc2N(C(=O)C(C)C)S(=O)(=O)C(F)(F)F)c1C [Compound 1-336] | 90
6 | Cc1c(Cc2ccccc2N(C(=O)CC(C)C)S(=O)(=O)C(F)(F)F)c(=O)on1C(C)c1ccccc1 (stereo not drawn) [Compound 1-359] | 90

Test system: broad leaf weeds (Lindernia pyxidaria and Monochoria vaginalis)
Assay: as above
Assay type: in vivo
Settings: Lindernia pyxidaria, 120 g/10a active ingredient, dry weight vs untreated area, 14 days after treatment
Outline: as §1

Row | SMILES | Herbicidal rate (%) Lindernia pyxidaria [%]
7 | COCC(C)n1oc(=O)c(Cc2ccccc2N(S(C)(=O)=O)S(=O)(=O)C(F)(F)F)c1C (stereo not drawn) [Compound 1-899] | 90
8 | CSCCn1oc(=O)c(Cc2ccccc2N(C(=O)C(C)C)S(=O)(=O)C(F)(F)F)c1C [Compound 1-336] | 90
9 | Cc1c(Cc2ccccc2N(C(=O)CC(C)C)S(=O)(=O)C(F)(F)F)c(=O)on1C(C)c1ccccc1 (stereo not drawn) [Compound 1-359] | 90

Same assay, conditions: Monochoria vaginalis, 120 g/10a active ingredient, dry weight vs untreated area, 14 days after treatment

Row | SMILES | Herbicidal rate (%) Monochoria vaginalis [%]
10 | COCC(C)n1oc(=O)c(Cc2ccccc2N(S(C)(=O)=O)S(=O)(=O)C(F)(F)F)c1C (stereo not drawn) [Compound 1-899] | 90
11 | CSCCn1oc(=O)c(Cc2ccccc2N(C(=O)C(C)C)S(=O)(=O)C(F)(F)F)c1C [Compound 1-336] | 90
12 | Cc1c(Cc2ccccc2N(C(=O)CC(C)C)S(=O)(=O)C(F)(F)F)c(=O)on1C(C)c1ccccc1 (stereo not drawn) [Compound 1-359] | 90

Test system: Echinochloa crus-galli
Assay: Test Example 2: herbicidal effect test by treatment during growing period in paddy rice cultivation (seven days after seeding)
Assay type: in vivo
Settings: 120 g/10a active ingredient, assessed 14 days after treatment, dry weight vs untreated area
Outline: (§2)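 Greenhouse flooded-pot test, seeds sown in puddled paddy soil; emulsion applied into water 7 d after seeding, 120 g a.i./10 a. Dry-weight-based herbicidal rate at 14 d, n=2.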

Row | SMILES | Herbicidal rate (%) Echinochloa crus-galli [%]
13 | COCC(C)n1oc(=O)c(Cc2ccccc2N(S(C)(=O)=O)S(=O)(=O)C(F)(F)F)c1C (stereo not drawn) [Compound 1-899] | 90
14 | CSCCn1oc(=O)c(Cc2ccccc2N(C(=O)C(C)C)S(=O)(=O)C(F)(F)F)c1C [Compound 1-336] | 90
15 | Cc1c(Cc2ccccc2N(C(=O)CC(C)C)S(=O)(=O)C(F)(F)F)c(=O)on1C(C)c1ccccc1 (stereo not drawn) [Compound 1-359] | 90

Test system: Scirpus juncoides
Assay: as above
Assay type: in vivo
Settings: 120 g/10a active ingredient, assessed 14 days after treatment, dry weight vs untreated area
Outline: as §2

Row | SMILES | Herbicidal rate (%) Scirpus juncoides [%]
16 | COCC(C)n1oc(=O)c(Cc2ccccc2N(S(C)(=O)=O)S(=O)(=O)C(F)(F)F)c1C (stereo not drawn) [Compound 1-899] | 90
17 | CSCCn1oc(=O)c(Cc2ccccc2N(C(=O)C(C)C)S(=O)(=O)C(F)(F)F)c1C [Compound 1-336] | 90
18 | Cc1c(Cc2ccccc2N(C(=O)CC(C)C)S(=O)(=O)C(F)(F)F)c(=O)on1C(C)c1ccccc1 (stereo not drawn) [Compound 1-359] | 90

Test system: broad leaf weeds (Lindernia pyxidaria and Monochoria vaginalis)
Assay: as above
Assay type: in vivo
Settings: Lindernia pyxidaria, 120 g/10a active ingredient, assessed 14 days after treatment, dry weight vs untreated area
Outline: as §2

Row | SMILES | Herbicidal rate (%) Lindernia pyxidaria [%]
19 | COCC(C)n1oc(=O)c(Cc2ccccc2N(S(C)(=O)=O)S(=O)(=O)C(F)(F)F)c1C (stereo not drawn) [Compound 1-899] | 90
20 | CSCCn1oc(=O)c(Cc2ccccc2N(C(=O)C(C)C)S(=O)(=O)C(F)(F)F)c1C [Compound 1-336] | 90
21 | Cc1c(Cc2ccccc2N(C(=O)CC(C)C)S(=O)(=O)C(F)(F)F)c(=O)on1C(C)c1ccccc1 (stereo not drawn) [Compound 1-359] | 90

Same assay, conditions: Monochoria vaginalis, 120 g/10a active ingredient, assessed 14 days after treatment, dry weight vs untreated area

Row | SMILES | Herbicidal rate (%) Monochoria vaginalis [%]
22 | COCC(C)n1oc(=O)c(Cc2ccccc2N(S(C)(=O)=O)S(=O)(=O)C(F)(F)F)c1C (stereo not drawn) [Compound 1-899] | 90
23 | CSCCn1oc(=O)c(Cc2ccccc2N(C(=O)C(C)C)S(=O)(=O)C(F)(F)F)c1C [Compound 1-336] | 90
24 | Cc1c(Cc2ccccc2N(C(=O)CC(C)C)S(=O)(=O)C(F)(F)F)c(=O)on1C(C)c1ccccc1 (stereo not drawn) [Compound 1-359] | 90

Test system: Amaranthus viridis
Assay: Test Example 3: herbicidal effect test by treatment of dry field farming soil (one day after seeding)
Assay type: in vivo
Settings: 120 g/10a active ingredient, evaluated 14 days after treatment
Outline: (§3)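 Compound emulsions are sprayed on the soil surface one day after sowing (120 g a.i. per 10 ares) before weeds emerge. Effect is expressed as percent dry-weight reduction versus untreated controls 14 days post-treatment.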

Row | SMILES | herbicidal rate, Amaranthus viridis [%]
25 | COCC(C)n1oc(=O)c(Cc2ccccc2N(S(C)(=O)=O)S(=O)(=O)C(F)(F)F)c1C (stereo not drawn) [Compound 1-899] | 90
26 | CSCCn1oc(=O)c(Cc2ccccc2N(C(=O)C(C)C)S(=O)(=O)C(F)(F)F)c1C [Compound 1-336] | 90
27 | Cc1c(Cc2ccccc2N(C(=O)CC(C)C)S(=O)(=O)C(F)(F)F)c(=O)on1C(C)c1ccccc1 (stereo not drawn) [Compound 1-359] | 90

Test system: Chenopodium album
Assay: as above
Assay type: in vivo
Settings: 120 g/10a active ingredient, evaluated 14 days after treatment
Outline: as §3

Row | SMILES | herbicidal rate, Chenopodium album [%]
28 | COCC(C)n1oc(=O)c(Cc2ccccc2N(S(C)(=O)=O)S(=O)(=O)C(F)(F)F)c1C (stereo not drawn) [Compound 1-899] | 90
29 | CSCCn1oc(=O)c(Cc2ccccc2N(C(=O)C(C)C)S(=O)(=O)C(F)(F)F)c1C [Compound 1-336] | 90
30 | Cc1c(Cc2ccccc2N(C(=O)CC(C)C)S(=O)(=O)C(F)(F)F)c(=O)on1C(C)c1ccccc1 (stereo not drawn) [Compound 1-359] | 90

Test system: Echinochloa crus-galli
Assay: as above
Assay type: in vivo
Settings: 120 g/10a active ingredient, evaluated 14 days after treatment
Outline: as §3

Row | SMILES | herbicidal rate, Echinochloa crus-galli [%]
31 | COCC(C)n1oc(=O)c(Cc2ccccc2N(S(C)(=O)=O)S(=O)(=O)C(F)(F)F)c1C (stereo not drawn) [Compound 1-899] | 90
32 | CSCCn1oc(=O)c(Cc2ccccc2N(C(=O)C(C)C)S(=O)(=O)C(F)(F)F)c1C [Compound 1-336] | 90
33 | Cc1c(Cc2ccccc2N(C(=O)CC(C)C)S(=O)(=O)C(F)(F)F)c(=O)on1C(C)c1ccccc1 (stereo not drawn) [Compound 1-359] | 90

Test system: southern crabgrass
Assay: as above
Assay type: in vivo
Settings: 120 g/10a active ingredient, evaluated 14 days after treatment
Outline: as §3

Row | SMILES | herbicidal rate, southern crabgrass [%]
34 | COCC(C)n1oc(=O)c(Cc2ccccc2N(S(C)(=O)=O)S(=O)(=O)C(F)(F)F)c1C (stereo not drawn) [Compound 1-899] | 90
35 | CSCCn1oc(=O)c(Cc2ccccc2N(C(=O)C(C)C)S(=O)(=O)C(F)(F)F)c1C [Compound 1-336] | 90
36 | Cc1c(Cc2ccccc2N(C(=O)CC(C)C)S(=O)(=O)C(F)(F)F)c(=O)on1C(C)c1ccccc1 (stereo not drawn) [Compound 1-359] | 90

Test system: Amaranthus viridis
Assay: Test Example 4: herbicidal effect test by treatment of leave and stem in dry field farming (seven days after seeding)
Assay type: in vivo
Settings: 120 g/10a active ingredient; emulsion sprayed seven days after seeding; evaluated 14 days after treatment
Outline: (§4)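 Twenty seeds per species were mixed into the top 1 cm of alluvial soil in 36 cm^2 pots; emulsions were sprayed seven days after seeding at 100 L per 10 ares (120 g active ingredient per 10 ares). Herbicidal rate (%) = {1 − treated/untreated mean dry weight} × 100, 14 days after treatment, duplicate.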

Row | SMILES | herbicidal effect (herbicidal rate), Amaranthus viridis [%]
37 | COCC(C)n1oc(=O)c(Cc2ccccc2N(S(C)(=O)=O)S(=O)(=O)C(F)(F)F)c1C (stereo not drawn) [Compound 1-899] | 40
38 | CSCCn1oc(=O)c(Cc2ccccc2N(C(=O)C(C)C)S(=O)(=O)C(F)(F)F)c1C [Compound 1-336] | 40
39 | Cc1c(Cc2ccccc2N(C(=O)CC(C)C)S(=O)(=O)C(F)(F)F)c(=O)on1C(C)c1ccccc1 (stereo not drawn) [Compound 1-359] | 40

Test system: Chenopodium album
Assay: as above
Assay type: in vivo
Settings: 120 g/10a active ingredient; emulsion sprayed seven days after seeding; evaluated 14 days after treatment
Outline: as §4

Row | SMILES | herbicidal effect (herbicidal rate), Chenopodium album [%]
40 | COCC(C)n1oc(=O)c(Cc2ccccc2N(S(C)(=O)=O)S(=O)(=O)C(F)(F)F)c1C (stereo not drawn) [Compound 1-899] | 40
41 | CSCCn1oc(=O)c(Cc2ccccc2N(C(=O)C(C)C)S(=O)(=O)C(F)(F)F)c1C [Compound 1-336] | 40
42 | Cc1c(Cc2ccccc2N(C(=O)CC(C)C)S(=O)(=O)C(F)(F)F)c(=O)on1C(C)c1ccccc1 (stereo not drawn) [Compound 1-359] | 40

Test system: Echinochloa crus-galli
Assay: as above
Assay type: in vivo
Settings: 120 g/10a active ingredient; emulsion sprayed seven days after seeding; evaluated 14 days after treatment
Outline: as §4

Row | SMILES | herbicidal effect (herbicidal rate), Echinochloa crus-galli [%]
43 | COCC(C)n1oc(=O)c(Cc2ccccc2N(S(C)(=O)=O)S(=O)(=O)C(F)(F)F)c1C (stereo not drawn) [Compound 1-899] | 90
44 | CSCCn1oc(=O)c(Cc2ccccc2N(C(=O)C(C)C)S(=O)(=O)C(F)(F)F)c1C [Compound 1-336] | 90
45 | Cc1c(Cc2ccccc2N(C(=O)CC(C)C)S(=O)(=O)C(F)(F)F)c(=O)on1C(C)c1ccccc1 (stereo not drawn) [Compound 1-359] | 90

Test system: southern crabgrass
Assay: as above
Assay type: in vivo
Settings: 120 g/10a active ingredient; emulsion sprayed seven days after seeding; evaluated 14 days after treatment
Outline: as §4

Row | SMILES | herbicidal effect (herbicidal rate), southern crabgrass [%]
46 | COCC(C)n1oc(=O)c(Cc2ccccc2N(S(C)(=O)=O)S(=O)(=O)C(F)(F)F)c1C (stereo not drawn) [Compound 1-899] | 90
47 | CSCCn1oc(=O)c(Cc2ccccc2N(C(=O)C(C)C)S(=O)(=O)C(F)(F)F)c1C [Compound 1-336] | 90
48 | Cc1c(Cc2ccccc2N(C(=O)CC(C)C)S(=O)(=O)C(F)(F)F)c(=O)on1C(C)c1ccccc1 (stereo not drawn) [Compound 1-359] | 90
